Article PMC10982999, “Structure-Guided Design and Optimization of Covalent VHL-Targeted Sulfonyl Fluoride PROTACs” (Journal of Medicinal Chemistry, 2024)

Target: T1, VHL (VCB) (Homo sapiens, UniProt P40337)
T1 construct: human VHL (UniPort entry P40337, residues 1 -213); 6xHis followed by TEV site (N, cleaved yes); made in house; host or cells: E. coli One Shot BL21(DE3)
Assay: Intact-protein LC-MS of VCB labelling
Assay type: binding
Settings: 100 μM compound, 24 h, room temperature
Protocol: Initially, we subjected VHL-SF2-Biotin to the streptavidin shift assay and observed a greater extent of VHL modification (44%) than for VHL-SF1-Biotin under the same conditions (Figure S2). […] Intact LC–MS analysis confirmed single labeling of VHL by VHL-SF2, with 65% conversion at 24 h (Figure S5). Although we attempted several site ID identification experiments by digesting the labeled recombinant VHL, the Ser110-containing peptide was not detected in the samples treated with VHL-SF2. This observation is consistent with a change in peptide properties that is incompatible with mass spectrometry detection compared to untreated samples (Table S2). […]
Figure S4. Dose-response of VHL-SF1 following a 2 h pre-incubation in the presence of VCB and FAM-conjugated HIF1α-derived peptide, assessed by fluorescence polarization. […]
HEK293 cells (10 × 10^6 cells at 2 × 10^5 cells/ mL) were transfected with 2.6 µg of VHL-NanoLuc plasmid (PROMEGA) plus 24 µg of transfection carrier plasmid (PROMEGA) and incubated for 20 h at 37 °C, in a 5% CO2 incubator. […] Immediately after addition of tracer and compounds, cells were treated with digitonin after which NanoBRET Nano-Glo Substrate and inhibitor were added and BRET signal was measured in a Clariostar plate reader (BMG Labtech) at 450 nm and 610 nm within 5 min after addition of digitonin. […]

SMILES: Cc1cc([C@H](C(=O)N2C[C@H](S(=O)(=O)F)C[C@H]2C(=O)N[C@@H](CC(=O)OC(C)(C)C)c2ccc(-c3scnc3C)cc2)C(C)C)on1 [VHL-SF2, tert-Butyl (S)-3-((2S,4R)-4-(Fluorosulfonyl)-1-((R)-3-methyl-2-(3-methylisoxazol-5-yl)butanoyl)pyrr-olidine-2-carboxamido)-3-(4-(4-methylthiazol-5-yl)phenyl)propanoate]
- conversion, single (mono) labelling of VHL: 65%
